Peptide text beside a SMILES is read from it.
Tests used:
intact, native laminin = intact, native laminin (Mus musculus, UniProt P02469+P19137); test: Inhibition of heparin binding to laminin by peptide fragments in solution (Example 3); settings: peptides in solution 1 mg/ml to 1 μg/ml, laminin coated on plastic at 60 μg/ml, FIG. 6
Experimental: Peptides 9, 11-14 and 16 in solution (and not absorbed to plastic), were screened for the ability to inhibit the binding of heparin to intact, native laminin coated on plastic. This experimental approach avoids problems due to differential coating of peptides in heparin binding assays. Laminin at 60 μg/ml in PBS was coated on 96-well plates, using 50 μls per well and dried overnight at 28+ C. The wells were then treated for two hours with 2 mg/ml BSA in wash buffer (described above in Example 2). Peptides at various dilutions ranging from 1 mg/ml to 1 μg/ml in PBS and CHAPS (Cholamido-propyl-dimethyl-Axmmonio-PropaneSulfonate)(a detergent used to avoid non-specific sticking) were co-incubated with a standard amount of ^3 H-heparin (25,000 cpm per well 5 μg/ml final concentration) for two hours at 37° C. and the mixture was then transferred to the laminin coated plate (50 μl) and allowed to incubate for another two hours at 37° C. The wells were then washed and radioactivity was counted as described above.

[1] = tested on: Murine fibrosarcoma cells (uv-2237-MM); test: Cell adhesion assay for MM fibrosarcoma cell line (Example 6B); assay type: cell-based; settings: FIG. 11
Experimental: (§1) Adhesion was measured using 96 well microtiter plates adsorbed with three different amounts (0.1; 1.0; and 10.0 μg/per well) of peptides 9, 11-18, BSA and laminin. Cultures of cells which were 60-80% confluent were metabolically labeled for 24 hours with the addition of 3 mCi/ml of ^3 H-amino acid mixture. On the day of the assay, the cells were harvested by trypsinization, the trypsin was inhibited by the addition of serum, and the cells were washed free of this mixture and resuspended in DMEM buffered with HEPES at pH 7.2. The adhesion medium also contained 2 mg/ml BSA. The cells were adjusted to a concentration of 3-4×10^4 /ml and 100 μls of this cell suspension was added to the wells. The assay mixture was then incubated at 37° C for 120 minutes. At the end of the incubation, the wells were washed with warm PBS containing 10 mM Ca^++, and the adherent population was solubilized with 0.5N NaOH containing 1% sodium dodecyl sulfate. The solubilized cells were then quantitated using a liquid scintillation counter. Each determination was done in triplicate.
Murine fibrosarcoma cells (uv-2237-MM) were originally provided by Dr. I. J. Fidler of Anderson Hospital, University of Texas Health Sciences Center, Houston, Tex. Culturing, labeling and harvesting techniques were as described in part A. Cell adhesion assay was performed as described in Example 5.

[2] = tested on: PC12 rat pheochromocytoma cells; test: Cell adhesion assay for PC12 pheochromocytoma cell line (Example 6D); assay type: cell-based; settings: FIG. 13
Experimental: as §1
PC12 rat pheochromocytoma cells were provided by Dr. P. Letourneau of the Department of Anatomy, University of Minnesota, Minneapolis, Minn. Culturing techniques were as described in part A. Labelling and harvesting techniques were as described in Example 5. Cell adhesion assay was performed as described in Example 5.

[3] = Heparin binding assay on nitrocellulose sheets (Example 1); settings: peptide on nitrocellulose, 1 mg/ml to 1 μg/ml, 2 hours, FIG. 4
Experimental: The assay for heparin binding utilizes nitrocellulose sheets as subtrata to bind peptides or proteins to be tested for heparin binding activity. Peptides 9 and 11-18 were solubilized in 50 mM NH3 HCO3 to form solutions of 1 mg/ml. Each solution was serially diluted 1:1 in the same buffer producing concentrations from 1 mg/ml to 1 μg/ml. Nitrocellulose sheets which had been presoaked in 50 mM NH3 HCO3 were placed in a 96 well dot blot apparatus (Bethesda Research Laboratories, Bethesda, MD, and 100 μl of various concentrations of each peptide were aspirated through the wells. Each well was then washed three times with binding buffer (10 mM Tris-HCl, pH 8.0, 0.15 M NaCl), and the filters were removed and allowed to air dry overnight. The filters were then equilibriated for 5 minutes at room temperature in binding buffer which contained 10 mM CaCl2. ^3 H-heparin was then diluted to a concentration of 50,000 cpm/ml in binding buffer (with Ca^++), and nitrocellulose sheets were incubated in the presence of this mixture for 2 hours. The filters were then washed four times with binding buffer, and air dried. The individual spots of samples were cut out of the nitrocellulose, immersed in scintillation fluid and bound heparin was quantitated with a Beckman LS-3801 liquid scintillation counter. […]

[4] = Heparin binding to peptides coated on 96-well plastic plates (Example 2); settings: 1 mg/ml to 1 μg/ml, two hours at 37° C., FIG. 5
Experimental: In order to test the ability of the synthesized peptides (9 and 11-18) to bind to 96-well plastic plates (in which experiments with cultured cell lines can be performed), we did an experiment similar to that described above in Example 1. Stock solutions of peptides 9 and 11-18, laminin and BSA at a maximum concentration of 1 mg/ml were prepared and serially diluted in PBS+NaN3 producing final concentration from 1 mg/ml to 1 μg/ml. Fifty μl from each concentration was coated on the 96-well plates and left to dry overnight at 28° C. Then, wells were treated for two hours with […] of 2 mg/ml BSA in 6 mM phosphate, 100 mM NaCl, 68 μM CaCl2, pH 6.8 (wash buffer) in order to minimize non-specific binding. Next 50 μls of ^3 H-heparin (10 μg/ml) was added (50,000 cpm/well) for two hours at 37° C. The wells were then washed three times with wash buffer containing 0.05% Triton X-100 and finally they were incubated for thirty minutes at 60 C with 200 μl of 0.5 N NaOH and 1% SDS. The amount of ^3 H-heparin bound at each peptide concentration was quantitated as described above in Example 1.

Structure (SMILES) | inhibition of binding of heparin to laminin (intact, native laminin) | cell adhesion [1] | cell adhesion [2] | binding of ^3 H-heparin [3] | binding of ^3 H-heparin [4]
CSCC[C@H](NC(=O)CNC(=O)[C@H](CCCCN)NC(=O)[C@H](CCC(=O)O)NC(=O)[C@H](Cc1ccccc1)NC(=O)[C@H](CS)NC(=O)[C@@H](NC(=O)[C@@H]1CCCN1C(=O)[C@H](CCCNC(=N)N)NC(=O)[C@@H]1CCCN1C(=O)[C@H](CC(C)C)NC(=O)[C@@H](NC(=O)[C@@H](NC(=O)[C@H](Cc1ccc(O)cc1)NC(=O)[C@@H](N)CCCNC(=N)N)C(C)C)C(C)C)C(C)C)C(=O)N[C@@H](CC(N)=O)C(=O)N[C@@H](Cc1ccc(O)cc1)C(=O)N[C@H](C(=O)N[C@H](C(=O)N[C@@H](CCCNC(=N)N)C(=O)O)C(C)C)[C@@H](C)O [Peptide F9] (H-RYVVLPRPVCFEKGMNYTVR-OH) | interact most strongly with heparin | potent promoters of cell adhesion | potent promoters of cell adhesion | strongly bound ^3 H-heparin | bind heparin very well
CC[C@H](C)[C@H](NC(=O)[C@H](CCCCN)NC(=O)[C@H](CC(C)C)NC(=O)[C@H](C)NC(=O)[C@H](CCCCN)NC(=O)[C@H](C)NC(=O)[C@H](CCCCN)NC(=O)[C@H](CCC(=O)O)NC(=O)[C@H](CC(C)C)NC(=O)[C@H](Cc1ccccc1)NC(=O)[C@H](CCCCN)NC(=O)[C@H](Cc1c[nH]cn1)NC(=O)[C@@H](NC(=O)[C@H](CCCNC(=N)N)NC(=O)[C@H](CC(N)=O)NC(=O)[C@@H](NC(=O)[C@H](CC(C)C)NC(=O)[C@@H](N)CCC(=O)O)[C@@H](C)O)[C@@H](C)O)C(=O)O [Peptide F13, ELTNRTHKFLEKAKALKI] (H-ELTNRTHKFLEKAKALKI-OH) | interact most strongly with heparin | potent promoters of cell adhesion | potent promoters of cell adhesion | strongly bound ^3 H-heparin | binds heparin but less extensively

— patent publication US4870160A, “Polypeptides with laminin activity” (Regents of the University of Minnesota, priority 1987, dated 1989)
